A value given as a limit tells only on which side of the number the result lay.

T1 sequence (P01116 1-188 isoform P01116-2 G12D): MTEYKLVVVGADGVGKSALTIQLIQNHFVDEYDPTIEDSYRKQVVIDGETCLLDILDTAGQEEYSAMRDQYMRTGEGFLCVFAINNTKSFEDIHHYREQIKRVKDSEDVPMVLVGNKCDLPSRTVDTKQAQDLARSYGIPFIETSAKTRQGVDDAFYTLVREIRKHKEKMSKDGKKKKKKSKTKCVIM

The assay concerns the target T1, KRAS (G12D)-HiBit in AsPc-1-KRAS (G12D)-HiBit-KI cell (Homo sapiens, UniProt P01116, G12D).
T1 construct: host or cells: AsPc-1-KRAS (G12D)-HiBit-KI cells (knock-in line)
As to the kind of experiment: G12D HiBit assay. The format is cell-based. As to conditions: 24 hours compound treatment, absolute DC50, read-out: Average PHA DC50. Put shortly:
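Degradation of endogenous HiBiT-tagged KRAS G12D in AsPc-1 knock-in cells read after 24 h compound exposure (0.015-300 nM, 3-fold steps) by Nano-Glo HiBiT lytic luminescence. Signal normalised to DMSO-only cells; absolute DC50 derived by curve fitting.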
(In general: HiBiT is a short tag that completes a luciferase, so light tracks the accessible tagged protein.)
In the case of `C#Cc1c(F)ccc2cccc(-c3ncc4c(N5CC6CCC(C5)N6)nc(OC[C@@]56CCCN5[C@H](COC(=O)N5CCC(COC7CCN(Cc8cccc9c8n(C)c(=O)n9C8CCC(=O)NC8=O)CC7)CC5)CC6)nc4c3F)c12` (stereo partly drawn) [Compound 128, [(3S,8S)-8-[[4-(3,8-diazabicyclo[3.2.1]octan-3-yl)-7-(8-ethynyl-7-fluoro-1-naphthyl)-8-fluoro-pyrido[4,3-d]pyrimidin-2-yl]oxymethyl]-1,2,3,5,6,7-hexahydropyrrolizin-3-yl]methyl4-[[1-[[1-(2,6-dioxo-3-piperidyl)-3-methyl-2-oxo-benzimidazol-4-yl]methyl]-4-piperidyl]oxymethyl]piperidine-1-carboxylate], the DC50 was less than 100 nM.

For `C#Cc1c(F)ccc2cccc(-c3ncc4c(N5CC6CCC(C5)N6)nc(OC[C@@]56CCCN5[C@H](COC(=O)NCCCCC(=O)N5CCN(c7ccc(N8CCC(=O)NC8=O)cc7)CC5)CC6)nc4c3F)c12` [Compound 147, [(3S,8S)-8-[[4-(3,8-Diazabicyclo[3.2.1]octan-3-yl)-7-(8-ethynyl-7-fluoro-1-naphthyl)-8-fluoro-pyrido[4,3-d]pyrimidin-2-yl]oxymethyl]-1,2,3,5,6,7-hexahydropyrrolizin-3-yl]methyl N-[5-[4-[4-(2,4-dioxohexahydropyrimidin-1-yl)phenyl]piperazin-1-yl]-5-oxo-pentyl]carbamate], the DC50 is not below 300 nM.

As for `C#Cc1c(F)ccc2cccc(-c3ncc4c(N5CC6CCC(C5)N6)nc(OC[C@@]56CCCN5[C@H](COC(=O)N5CCN(C7CCN(Cc8ccc9c(c8)n(C)c(=O)n9C8CCC(=O)NC8=O)CC7)CC5)CC6)nc4c3F)c12` (stereo partly drawn) [Compound 72], the DC50 lay within 100 to 300 nM.

Turning to `C#Cc1c(F)ccc2cccc(-c3ncc4c(N5CC6CCC(C5)N6)nc(OC[C@@]56CCCN5[C@H](COC(=O)N5CC[C@@H](CN7CCC(c8ccc9c(c8)n(C)c(=O)n9C8CCC(=O)NC8=O)CC7)C5)CC6)nc4c3F)c12` (stereo partly drawn) [Compound 81, [(3S,8S)-8-[[4-(3,8-Diazabicyclo[3.2.1]octan-3-yl)-7-(8-ethynyl-7-fluoro-1-naphthyl)-8-fluoro-pyrido[4,3-d]pyrimidin-2-yl]oxymethyl]-1,2,3,5,6,7-hexahydropyrrolizin-3-yl]methyl (3S)-3-[[4-[1-(2,6-dioxo-3-piperidyl)-3-methyl-2-oxo-benzimidazol-5-yl]-1-piperidyl]methyl]pyrrolidine-1-carboxylate], the DC50 was less than 100 nM.

With `C#Cc1c(F)ccc2cc(O)cc(-c3ncc4c(N5CCCC6(CCO6)C5)nc(OC[C@@]56CCCN5[C@H](COC(=O)N5CCC(OCCCc7cccc8c7n(C)c(=O)n8C7CCC(=O)NC7=O)CC5)CC6)nc4c3F)c12` (stereo partly drawn) [Compound 35], the DC50 is less than 100 nM.

Turning to `C#Cc1c(F)ccc2cccc(-c3ncc4c(N5CC6CCC(C5)N6)nc(OC[C@@]56CCCN5[C@H](COC(=O)N5CCC(C7CCN(Cc8ccc9c(c8)n(C)c(=O)n9C8CCC(=O)NC8=O)CC7)CC5)CC6)nc4c3F)c12` (stereo partly drawn) [Compound 55, [(3S,8S)-8-[[4-(3,8-Diazabicyclo[3.2.1]octan-3-yl)-7-(8-ethynyl-7-fluoro-1-naphthyl)-8-fluoro-pyrido[4,3-d]pyrimidin-2-yl]oxymethyl]-1,2,3,5,6,7-hexahydropyrrolizin-3-yl]methyl 4-[1-[[1-(2,6-dioxo-3-piperidyl)-3-methyl-2-oxo-benzimidazol-5-yl]methyl]-4-piperidyl]piperidine-1-carboxylate], the DC50 was less than 100 nM.

Consider `C#Cc1c(F)ccc2cccc(-c3ncc4c(N5CC6CCC(C5)N6)nc(OC[C@@]56CCCN5[C@H](COC(=O)N5CC(OCC7CCN(c8ccc9c(c8)n(C)c(=O)n9C8CCC(=O)NC8=O)CC7)C5)CC6)nc4c3F)c12` (stereo partly drawn) [Compound 101, [(3S,8S)-8-[[4-(3,8-Diazabicyclo[3.2.1]octan-3-yl)-7-(8-ethynyl-7-fluoro-1-naphthyl)-8-fluoro-pyrido[4,3-d]pyrimidin-2-yl]oxymethyl]-1,2,3,5,6,7-hexahydropyrrolizin-3-yl]methyl 3-[[1-[1-(2,6-dioxo-3-piperidyl)-3-methyl-2-oxo-benzimidazol-5-yl]-4-piperidyl]methoxy]azetidine-1-carboxylate], for which the DC50 is less than 100 nM.

With `C#Cc1c(F)ccc2cccc(-c3ncc4c(N5CC6CCC(C5)N6)nc(OC[C@@]56CCCN5[C@H](COC(=O)N5CCC(N7CCN(Cc8ccc9c(c8)n(C)c(=O)n9C8CCC(=O)NC8=O)CC7)CC5)CC6)nc4c3F)c12` (stereo partly drawn) [Compound 56, [(3S,8S)-8-[[4-(3,8-Diazabicyclo[3.2.1]octan-3-yl)-7-(8-ethynyl-7-fluoro-1-naphthyl)-8-fluoro-pyrido[4,3-d]pyrimidin-2-yl]oxymethyl]-1,2,3,5,6,7-hexahydropyrrolizin-3-yl]methyl 4-[4-[[1-(2,6-dioxo-3-piperidyl)-3-methyl-2-oxo-benzimidazol-5-yl]methyl]piperazin-1-yl]piperidine-1-carboxylate], the DC50 is less than 100 nM.

As to `C#Cc1c(F)ccc2cccc(-c3ncc4c(N5CC6CCC(C5)N6)nc(OC[C@@]56CCCN5[C@H](COC(=O)N5CCC(OCC7CCN(Cc8ccc9c(c8)n(C)c(=O)n9C8CCC(=O)NC8=O)CC7)CC5)CC6)nc4c3F)c12` (stereo partly drawn) [Compound 71], the DC50 is less than 100 nM.

Take `C#Cc1c(F)ccc2cccc(-c3ncc4c(N5CC6CCC(C5)N6)nc(OC[C@@]56CCCN5[C@H](COC(=O)N5CCC(OC7CN(Cc8ccc9c(c8)n(C)c(=O)n9C8CCC(=O)NC8=O)C7)CC5)CC6)nc4c3F)c12` (stereo partly drawn) [Compound 74]: the DC50 was less than 100 nM.

As for `C#Cc1c(F)ccc2cccc(-c3ncc4c(N5CC6CCC(C5)N6)nc(OC[C@@]56CCCN5[C@H](COC(=O)N5CCC(N7CCC(Cc8ccc9c(c8)n(C)c(=O)n9C8CCC(=O)NC8=O)CC7)CC5)CC6)nc4c3F)c12` (stereo partly drawn) [Compound 75], the DC50 was 100 to 300 nM.

Turning to `C#Cc1c(F)ccc2cccc(-c3ncc4c(N5CC6CCC(C5)N6)nc(OC[C@@]56CCCN5[C@H](COC(=O)N5CCC(OCCc7ccc8c(c7)n(C)c(=O)n8C7CCC(=O)NC7=O)CC5)CC6)nc4c3F)c12` (stereo partly drawn) [Compound 133, [(3S,8S)-8-[[4-(3,8-Diazabicyclo[3.2.1]octan-3-yl)-7-(8-ethynyl-7-fluoro-1-naphthyl)-8-fluoro-pyrido[4,3-d]pyrimidin-2-yl]oxymethyl]-1,2,3,5,6,7-hexahydropyrrolizin-3-yl]methyl 4-[2-[1-(2,6-dioxo-3-piperidyl)-3-methyl-2-oxo-benzimidazol-5-yl]ethoxy]piperidine-1-carboxylate], the DC50 was not below 300 nM.

For the compound `C#Cc1c(F)ccc2cccc(-c3ncc4c(N5CC6CCC(C5)N6)nc(OC[C@@]56CCCN5[C@H](COC(=O)N5CCC(N7CCC(Oc8cccc9c8n(C)c(=O)n9C8CCC(=O)NC8=O)CC7)CC5)CC6)nc4c3F)c12` (stereo partly drawn) [Compound 66], the DC50 is less than 100 nM.

Consider `C#Cc1c(F)ccc2cccc(-c3ncc4c(N5CC6CCC(C5)N6)nc(OC[C@@]56CCCN5[C@H](COC(=O)N5CCC(OCC#CC#Cc7cccc8c7n(C)c(=O)n8C7CCC(=O)NC7=O)CC5)CC6)nc4c3F)c12` (stereo partly drawn) [Compound 93, [(3S,8S)-8-[[4-(3,8-Diazabicyclo[3.2.1]octan-3-yl)-7-(8-ethynyl-7-fluoro-1-naphthyl)-8-fluoro-pyrido[4,3-d]pyrimidin-2-yl]oxymethyl]-1,2,3,5,6,7-hexahydropyrrolizin-3-yl]methyl4-[5-[1-(2,6-dioxo-3-piperidyl)-3-methyl-2-oxo-benzimidazol-4-yl]penta-2,4-diynoxy]piperidine-1-carboxylate], for which the DC50 is less than 100 nM.

On to `C#Cc1c(F)ccc2cccc(-c3ncc4c(N5CC6CCC(C5)N6)nc(OC[C@@]56CCCN5[C@H](COC(=O)N5CCC7(CC5)CN(CCCc5cccc8c5n(C)c(=O)n8C5CCC(=O)NC5=O)CCO7)CC6)nc4c3F)c12` (stereo partly drawn) [Compound 40], for which the DC50 was less than 100 nM.

With `C#Cc1c(F)ccc2cccc(-c3ncc4c(N5CC6CCC(C5)N6)nc(OC[C@@]56CCCN5[C@H](COC(=O)N5CCC(CN(C)C7CCN(c8cccc9c8n(C)c(=O)n9C8CCC(=O)NC8=O)CC7)CC5)CC6)nc4c3F)c12` (stereo partly drawn) [Compound 108, [(3S,8S)-8-[[4-(3,8-Diazabicyclo[3.2.1]octan-3-yl)-7-(8-ethynyl-7-fluoro-1-naphthyl)-8-fluoro-pyrido[4,3-d]pyrimidin-2-yl]oxymethyl]-1,2,3,5,6,7-hexahydropyrrolizin-3-yl]methyl4-[[[1-[1-(2,6-dioxo-3-piperidyl)-3-methyl-2-oxo-benzimidazol-4-yl]-4-piperidyl]-methyl-amino]methyl]piperidine-1-carboxylate], the DC50 was less than 100 nM.

Consider `C#Cc1c(F)ccc2cccc(-c3ncc4c(N5CC6CCC(C5)N6)nc(OC[C@@]56CCCN5[C@H](COC(=O)N5CC(CN7CCC(Oc8cccc9c8n(C)c(=O)n9C8CCC(=O)NC8=O)CC7)C5)CC6)nc4c3F)c12` (stereo partly drawn) [Compound 78], for which the DC50 was less than 100 nM.

On to `C#Cc1c(F)ccc2cccc(-c3ncc4c(N5CC6CCC(C5)N6)nc(OC[C@@]56CCCN5[C@H](COC(=O)N5CCC(CCOCC#Cc7ccc8c(c7)n(C)c(=O)n8C7CCC(=O)NC7=O)CC5)CC6)nc4c3F)c12` (stereo partly drawn) [Compound 105, [(3S,8S)-8-[[4-(3,8-diazabicyclo[3.2.1]octan-3-yl)-7-(8-ethynyl-7-fluoro-1-naphthyl)-8-fluoro-pyrido[4,3-d]pyrimidin-2-yl]oxymethyl]-1,2,3,5,6,7-hexahydropyrrolizin-3-yl]methyl 4-[2-[3-[1-(2,6-dioxo-3-piperidyl)-3-methyl-2-oxo-benzimidazol-5-yl]prop-2-ynoxy]ethyl]piperidine-1-carboxylate], for which the DC50 is less than 100 nM.
